Patent US4725578A, “Compounds having therapeutic effect and the preparation thereof” (Tobishi Pharmaceutical Co., Ltd., priority 1986, dated 1988)
Entries after “also recorded” stand apart in the source; their conditions may differ.

What was measured:
P-388 cells = assay: Antineoplastic action against implanted P-388 cells (ip-ip), survival T/C; assay type: in vivo, CDFl mice; conditions: for T/C % (Treatment/Control %): Table 6, P388, intraperitoneal
Procedure: To the peritoneal cavity of each group of mice consisting of six CDFl mice per group, 10^6 /0.1 ml of P-388 cells or 10^5 /0.1 ml of L-1210 cells were implanted. […]
In the Table, the symbol T/C % means Treatment/Control %, that is the increase in life when the control is 100. […] This method is used in the screening of U.S. National Cancer Institute.
(§1) In Table 7, the symbol "i.P.-i.P." means that the tumor cells are implanted intraperitoneally and the compounds being tested are also administered intraperitoneally. The symbol "TR" is the therapeutic ratio obtained by dividing the dose which provides a maximum T/C value, by the dose which provides a minimum T/C value.

L-1210 cells = assay: Antineoplastic action against implanted L-1210 cells (ip-ip), survival T/C; assay type: in vivo, CDFl mice
Procedure: In this animal test, the antineoplastic action against the implanted tumor was examined in lower animals, in vivo, in respect of the compounds according to the present invention, by using CDFl mice.
To the peritoneal cavity of each group of mice consisting of six CDFl mice per group, 10^6 /0.1 ml of P-388 cells or 10^5 /0.1 ml of L-1210 cells were implanted. […] While to the control groups of CDFl mice, P-388 and L-1210 cells were implanted in the same manner and they were bred without administration of the compounds.
(§2) In the Table, the symbol T/C % means Treatment/Control %, that is the increase in life when the control is 100. The values are obtained by implanting tumor cells to groups of mice (or rats), administering the compound being tested in various amounts every 24 hours after the implantation of the tumor cells and then calculating the ratio, the median survival time of the group to which the compound has been administered to the survival of the control, multiplied by a factor of 100. This method is used in the screening of U.S. National Cancer Institute.
as §1

B-16 melanoma = assay: B16 melanoma (ip-ip), survival T/C; assay type: in vivo, mice; conditions: for effectiveness against B-16 melanoma: (see Table 7)
Procedure: as §2, with “Institute. […]” for “Institute.”
as §1

MM2 = MM2 (ip-ip), survival T/C; assay type: in vivo, mice; conditions: for effectiveness against MM2: (see Table 7); for mice continuing to live more than 60 days after implantation (60<): Table 7, MM2 (i.P. - i.P.); for T/C / mice living more than 60 days (60<): additional tests, MM2 (ip-ip)
Procedure: as §2, with “Institute. […]” for “Institute.”
as §1
The term in Table 7, last column "3/6 60<", means that 3 mice out of 6 mice continue to live more than 60 days after the implantation of the tumor cells.

P 388 [1] = assay: P 388 (ip-iv), survival T/C; assay type: in vivo, mice
Procedure: as §2
(§3) In Table 9, "iv" and "sc" means that the administration of the compounds is carried out intravenously and the implantation of the tumor cells is carried out subcutaneously.

Colon 26 = Colon 26 (ip-ip), survival T/C; assay type: in vivo; conditions: 4 mg/kg × 9
Procedure: as §2

Yoshida sarcoma = Yoshida sarcoma (ip-ip), survival T/C; assay type: in vivo
Procedure: as §2

MOPC-104E = MOPC-104E (ip-ip), survival T/C; assay type: in vivo; conditions: 2 mg/kg × 9 times
Procedure: as §2

[2] = Toxicity test, lethal dose (Litchfield-Wilcoxon); assay type: in vivo, male 4-weeks CD-1 (ICR) mice; conditions: suspension in 0.5% CMC, 7 days observation
Procedure: With respect to the compounds of this invention, the lethal dose was determined as follows.
By using male 4-weeks CD-1 (ICR) mice consisting of 5 to 10 mice per group, the desired amount of each compound of this invention was suspended in 0.5% CMC solution and the resultant suspension was administered to each mouse intraperitoneally or intravenously. Observing the life or death as well as the general symptome during 7 days after the administration of the compounds, the value of LD50 for each compounds was estimated from the lethal population observed on the basis of the Litchfield-Wilcoxon method.

Erlich carcinoma = Erlich carcinoma (sc-ip), inhibition; assay type: in vivo; conditions: 4 mg/kg × 11, after 14 days
Lewis Lung Carcinoma = Lewis Lung Carcinoma (sc-ip), inhibition; assay type: in vivo; conditions: 8 mg/kg × 11, after 17 days
Colon. 38 = Colon. 38 (sc-ip), inhibition; assay type: in vivo; conditions: 8 mg/kg × 11, after 17 days
[3] = Neuropharmacological multidimentional observation (modified Arwin and Smith method); assay type: in vivo, 4-weeks CD-1 (IRC) mice; conditions: intraperitoneal, 1 to 20 mg/kg, observed every 30 minutes for 180 minutes, compared with patterns of known medicines
Procedure: In this test, other pharmacological effects which may be obtained by these compounds were investigated.
Each compound of the invention was intraperitoneally administered to 4-weeks CD-1 (IRC) mice (Nippon Charles Liver K.K.) in the dose of 1 to 20 mg/kg with using mice groups consisting of three mice per group. […] The observation was carried out according to the modified Arwin method and Smith method, i.e., neuropharmacological multidimentional observation method.
Making a comparison between the symptom observed and the pattern of the pharmacological action due to the known medicines, it has been discovered that each compound of the invention has the following pharmacological effect.

P 388 [4] = assay: P 388 (sc-iv), survival T/C; assay type: in vivo, mice
Procedure: as §2, §3

| Structure (SMILES) | T/C % (Treatment/Control %) (P-388 cells; dose 0.05 mg/kg) [%] | T/C % (Treatment/Control %) (P-388 cells; dose 0.5 mg/kg) [%] | T/C % (Treatment/Control %) (P-388 cells; dose 2 mg/kg) [%] | P388 (i.P. - i.P.) T/C (%) (P-388 cells; Table 7, dose 0.05 mg/kg) | P388 (i.P. - i.P.) T/C (%) (P-388 cells; Table 7, dose 0.5 mg/kg) | P388 (i.P. - i.P.) T/C (%) (P-388 cells; Table 7, dose 2 mg/kg) | P388 (i.P. - i.P.) T/C (%) (P-388 cells; Table 7, dose 5 mg/kg) | L1210 (i.P. - i.P.) T/C (%) (L-1210 cells; Table 7, dose 0.5 mg/kg) | L1210 (i.P. - i.P.) T/C (%) (L-1210 cells; Table 7, dose 2 mg/kg) | effectiveness against B-16 melanoma (B-16 melanoma) | B16 (i.P. - i.P.) T/C (%) (B-16 melanoma; Table 7, dose 0.5 mg/kg) | B16 (i.P. - i.P.) T/C (%) (B-16 melanoma; Table 7, dose 2 mg/kg) | B16 (i.P. - i.P.) T/C (%) (B-16 melanoma; Table 7, dose 4 mg/kg) | effectiveness against MM2 (MM2) | MM2 (i.P. - i.P.) T/C (%) (MM2; Table 7, dose 0.5 mg/kg) | MM2 (i.P. - i.P.) T/C (%) (MM2; Table 7, dose 2 mg/kg) | T/C % (Treatment/Control %) (P-388 cells; dose 10 mg/kg) [%] | LD50 and 95% Confidence Limit ([2]; intravenous) | T/C (P 388 [1]; 5.56 mg/kg × 9) [%] | further results |
| --- | --- | --- | --- | --- | --- | --- | --- | --- | --- | --- | --- | --- | --- | --- | --- | --- | --- | --- | --- | --- |
| CCCCCCOc1ccc2cc1Oc1ccc(cc1)CC1C(=O)N(C)C(C2)C(=O)NC(C)C(=O)NC(C)C(=O)N(C)C(Cc2ccc(OC)cc2)C(=O)NC(C)C(=O)N1C (stereo not drawn) [Ex. 2, n-hexylether of the compound TPC-A] | 110.3 | 137.3 | 153.5 | 130.4 | 143.5 | 150.0 | 176.1 | 115.6 | 126.6 | effective | 130.5 | 158.2 | 136.2 | effective | 110.3 | 129.3 | – | – | – | T/C % (Treatment/Control %) (P-388 cells; dose 4 mg/kg): 173.0%; L1210 (i.P. - i.P.) T/C (%) (L-1210 cells; Table 7, dose 4 mg/kg): 130.9%; mice continuing to live more than 60 days after implantation (60<) (MM2; dose 2 mg/kg): 3/6; mice continuing to live more than 60 days after implantation (60<) (MM2; dose 4 mg/kg): 1/7; MM2 (i.P. - i.P.) T/C (%) (MM2; Table 7, dose 4 mg/kg): 161.8%; T/C (P 388 [1]; 5 mg/kg × 5): 118.9%; T/C (Colon 26): 133.7%; mice living more than 60 days (60<) (Colon 26): 2/6; T/C (Yoshida sarcoma; 0.1 mg/kg × 5): 129.7%; T/C (Yoshida sarcoma; 0.5 mg/kg × 5): 173.6%; T/C (Yoshida sarcoma; 1 mg/kg × 5): 160.4%; T/C (Yoshida sarcoma; 2.5 mg/kg × 5): 149.5%; T/C (MOPC-104E): 145.3% |
| COc1ccc(CC2C(=O)NC(C)C(=O)N(C)C3Cc4ccc(cc4)Oc4cc(ccc4OC(C)=O)CC(C(=O)NC(C)C(=O)NC(C)C(=O)N2C)N(C)C3=O)cc1 (stereo not drawn) [Ex. 22] | 133.3 | 155.6 | 168.9 | 133.3 | 155.6 | 168.9 | 175.8 | 110.0 | 114.4 | effective | 116.9 | 128.5 | 147.8 | effective | 102.5 | 109.2 | 194.7 | 20.0(15.2-26.3) mg/kg | 171.5 | P388 (i.P. - i.P.) T/C (%) (P-388 cells; Table 7, dose 10 mg/kg): 194.7%; L1210 (i.P. - i.P.) T/C (%) (L-1210 cells; Table 7, dose 0.05 mg/kg): 100.9%; L1210 (i.P. - i.P.) T/C (%) (L-1210 cells; Table 7, dose 5 mg/kg): 120.0%; L1210 (i.P. - i.P.) T/C (%) (L-1210 cells; Table 7, dose 10 mg/kg): 128.9%; B16 (i.P. - i.P.) T/C (%) (B-16 melanoma; Table 7, dose 8 mg/kg): 141.1%; MM2 (i.P. - i.P.) T/C (%) (MM2; Table 7, dose 5 mg/kg): 117.8%; MM2 (i.P. - i.P.) T/C (%) (MM2; Table 7, dose 10 mg/kg): 120.9%; LD50 and 95% Confidence Limit ([2]; intraperitoneal): 18.4(16.9-20.0) mg/kg; T/C (P 388 [1]; 1.11 mg/kg × 9): 112.5%; Inhibition (Erlich carcinoma): 46.9%; Inhibition (Lewis Lung Carcinoma): 65.4%; Inhibition (Colon. 38): 51.9%; Pharmacological effect estinated ([3]; listed as Acetic acid ester of TPC-A): emetic action; also recorded: psychotropic action; also recorded: antidiuretic action |
| COc1ccc(C[C@H]2C(=O)N[C@H](C)C(=O)N(C)[C@@H]3Cc4ccc(cc4)Oc4cc(ccc4O)C[C@H](C(=O)N[C@@H](C)C(=O)N[C@@H](C)C(=O)N2C)N(C)C3=O)cc1.COc1ccc(C[C@H]2C(=O)N[C@H](C)C(=O)N(C)[C@@H]3Cc4ccc(cc4)Oc4cc(ccc4O)C[C@H](C(=O)N[C@@H](C)C(=O)N[C@@H](C)C(=O)N2C)N(C)C3=O)cc1.COc1ccc(C[C@H]2C(=O)N[C@H](C)C(=O)N(C)[C@@H]3Cc4ccc(cc4)Oc4cc(ccc4O)C[C@H](C(=O)N[C@@H](C)C(=O)N[C@@H](C)C(=O)N2C)N(C)C3=O)cc1.COc1ccc(C[C@H]2C(=O)N[C@H](C)C(=O)N(C)[C@@H]3Cc4ccc(cc4)Oc4cc(ccc4O)C[C@H](C(=O)N[C@@H](C)C(=O)N[C@@H](C)C(=O)N2C)N(C)C3=O)cc1.O.O.O.O.O [TPC-A] | – | – | – | – | – | – | – | – | – | – | – | – | – | – | – | – | 187.4 | 34.0(28.1-41.2) mg/kg | 121.4 | T/C (MM2; 2.78 mg/kg × 9): 138.7%; T/C (MM2; 5.56 mg/kg × 9): 231.2%; mice living more than 60 days (60<) (MM2; 5.56 mg/kg × 9): 2/6; T/C (MM2; 6.94 mg/kg × 9): 184.3%; mice living more than 60 days (60<) (MM2; 6.94 mg/kg × 9): 1/7; T/C (P 388 [4]; 5 mg/kg × 7): 179.6%; mice living more than 60 days (60<) (P 388 [4]; 5 mg/kg × 7): 2/7; T/C (P 388 [4]; 7 mg/kg × 7): 153.7%; mice living more than 60 days (60<) (P 388 [4]; 7 mg/kg × 7): 1/7; T/C (P 388 [4]; 10 mg/kg × 7): 127.8%; Pharmacological effect estinated [3]: emetic action; also recorded: anorexigenic action; also recorded: psychotropic action; also recorded: vasoconstrictive; also recorded: papaverine action; also recorded: antiper- |
